Where “and” joins values, the source holds several entries; their conditions need not be identical. Equal values may be shown once. Inconclusive results and toxic doses are left out. Rule for the calls: active = survival T/C of 150% or more; inactive = T/C below 125% in these data. Residues, ends and D or L forms follow the SMILES beside them. *: point of attachment. Trt = c1ccc(C(c2ccccc2)(c2ccccc2)*)cc1; Cbz = O=C(OCc1ccccc1)*
System: CD2F1 mice, L1210 leukemia ip, survival T/C
Assay: NCI In Vivo Anticancer Drug Screen. Data for tumor model L1210 Leukemia (intraperitoneal) in CD2F1 (CDF1) mice
Settings: higher = longer survival
Summary of the method: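 Mice carrying a transplanted tumor received test compound or vehicle alone. The value is the measurement in the treated group divided by that in the vehicle-treated control group.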

[1] = endpoint: mean survival time, dose: 100.0 mg/kg/injection, schedule: Q01DX009 (ip), vehicle: saline with Tween-80
[2] = endpoint: mean survival time, dose: 200.0 mg/kg/injection, schedule: Q01DX009 (ip), vehicle: saline with Tween-80
[3] = endpoint: mean survival time, dose: 400.0 mg/kg/injection, schedule: Q01DX009 (ip), vehicle: saline with Tween-80
[4] = endpoint: mean survival time, dose: 100.0 mg/kg/injection, schedule: Q04DX003 (ip), vehicle: saline with Tween-80
[5] = endpoint: mean survival time, dose: 200.0 mg/kg/injection, schedule: Q04DX003 (ip), vehicle: saline with Tween-80
[6] = endpoint: mean survival time, dose: 400.0 mg/kg/injection, schedule: Q04DX003 (ip), vehicle: saline with Tween-80
[7] = endpoint: mean survival time, dose: 25.0 mg/kg/injection, schedule: Q01DX009 (ip), vehicle: saline with Tween-80
[8] = endpoint: mean survival time, dose: 50.0 mg/kg/injection, schedule: Q01DX009 (ip), vehicle: saline with Tween-80
[9] = endpoint: mean survival time, dose: 100.0 mg/kg/injection, schedule: Q04DX003 (ip), vehicle: saline
[10] = endpoint: mean survival time, dose: 200.0 mg/kg/injection, schedule: Q04DX003 (ip), vehicle: saline
[11] = endpoint: mean survival time, dose: 400.0 mg/kg/injection, schedule: Q04DX003 (ip), vehicle: saline

Measured: T/C

CCCCCCCCCCC(=O)CCCCC
inactive: endpoint: mean survival time, dose: 100.0 mg/kg/injection, schedule: Q01DX009 (ip), vehicle: other 101 % of control | endpoint: mean survival time, dose: 100.0 mg/kg/injection, schedule: Q04DX003 (ip), vehicle: other 105 % of control | endpoint: mean survival time, dose: 200.0 mg/kg/injection, schedule: Q01DX009 (ip), vehicle: other 107 % of control | endpoint: mean survival time, dose: 200.0 mg/kg/injection, schedule: Q04DX003 (ip), vehicle: other 100 % of control | endpoint: mean survival time, dose: 400.0 mg/kg/injection, schedule: Q01DX009 (ip), vehicle: other 104 % of control | endpoint: mean survival time, dose: 400.0 mg/kg/injection, schedule: Q04DX003 (ip), vehicle: other 94 % of control

Clc1cccc(Cl)c1C(Cl)Cl
inactive: [1] 98 % of control | [2] 98 % of control | [3] 98 % of control

COC(=O)c1[nH]cnc1/N=N/N(C)C.[Cl][Cu][Cl]
inactive: endpoint: mean survival time, dose: 2.5 mg/kg/injection, schedule: Q01DX001 (ip), vehicle: saline 98 % of control | endpoint: mean survival time, dose: 5.0 mg/kg/injection, schedule: Q01DX001 (ip), vehicle: saline 92 % of control | endpoint: mean survival time, dose: 10.0 mg/kg/injection, schedule: Q01DX001 (ip), vehicle: saline 88 % of control and 96 % of control | endpoint: mean survival time, dose: 20.0 mg/kg/injection, schedule: Q01DX001 (ip), vehicle: saline 111 % of control

CS(=O)(=O)c1ccc(NN)c([N+](=O)[O-])c1
inactive: [4] 98 % of control | [5] 98 % of control | [6] 102 % of control

CCCCOCN(COCCCC)C(C)Cc1ccccc1 (centres undefined)
inactive: endpoint: mean survival time, dose: 12.5 mg/kg/injection, schedule: Q01DX009 (ip), vehicle: saline with Tween-80 94 % of control and 97 % of control | [7] 97 % of control and 102 % of control | [8] 93 % of control and 102 % of control | [1] 114 % of control and 95 % of control | [2] 123 % of control and 112 % of control

CCCCCCCCCCCCNC(=O)c1ccc[n+](C)c1
inactive: endpoint: mean survival time, dose: 12.5 mg/kg/injection, schedule: Q01DX009 (ip), vehicle: saline 88 % of control | endpoint: mean survival time, dose: 12.5 mg/kg/injection, schedule: Q04DX003 (ip), vehicle: saline 93 % of control | endpoint: mean survival time, dose: 25.0 mg/kg/injection, schedule: Q04DX003 (ip), vehicle: saline 97 % of control | endpoint: mean survival time, dose: 50.0 mg/kg/injection, schedule: Q04DX003 (ip), vehicle: saline 101 % of control

CN(C)C(=S)Nc1ccccc1
inactive: [1] 95 % of control | [4] 93 % of control | [2] 95 % of control | [5] 90 % of control | [6] 88 % of control

c1ccc2c(c1)-c1nc3ccccc3cc1CC21CCCC1
inactive: endpoint: mean survival time, dose: 100.0 mg/kg/injection, schedule: Q01DX001 (ip), vehicle: saline with Tween-80 98 % of control | endpoint: mean survival time, dose: 200.0 mg/kg/injection, schedule: Q01DX001 (ip), vehicle: saline with Tween-80 98 % of control | endpoint: mean survival time, dose: 400.0 mg/kg/injection, schedule: Q01DX001 (ip), vehicle: saline with Tween-80 93 % of control

Cn1cccnc1=O
inactive: endpoint: mean survival time, dose: 100.0 mg/kg/injection, schedule: Q04DX002 (ip), vehicle: saline 106 % of control | endpoint: mean survival time, dose: 200.0 mg/kg/injection, schedule: Q04DX002 (ip), vehicle: saline 95 % of control | endpoint: mean survival time, dose: 400.0 mg/kg/injection, schedule: Q04DX002 (ip), vehicle: saline 106 % of control

O=C(O)C1C2CC3OC(=O)C1C3C2 (centres undefined)
inactive: [9] 94 % of control | [10] 93 % of control | [11] 96 % of control

O=[As](O)(O)CC(Br)CBr (centres undefined)
inactive: [1] 100 % of control | [2] 94 % of control

CN(C(N)=O)C1CCCC1
inactive: endpoint: mean survival time, dose: 100.0 mg/kg/injection, schedule: Q01DX009 (ip), vehicle: saline 102 % of control | endpoint: mean survival time, dose: 200.0 mg/kg/injection, schedule: Q01DX009 (ip), vehicle: saline 105 % of control | endpoint: mean survival time, dose: 400.0 mg/kg/injection, schedule: Q01DX009 (ip), vehicle: saline 107 % of control

C=C1C(=O)O[C@@H]2[C@H]1[C@@H](OC(C)=O)C[C@H](C)[C@@H]1CCC(=O)[C@@]21C
inactive: [1] 93 % of control | [2] 89 % of control | [3] 92 % of control

O=C(O)CC(=O)O.[NH-]CC(O)CN(Cc1ccccc1)CC(O)CN.[Pt+2] (centres undefined)
inactive: endpoint: median survival time, dose: 2.5 mg/kg/injection, schedule: Q04DX003 (ip), vehicle: water 102 % of control | endpoint: median survival time, dose: 5.0 mg/kg/injection, schedule: Q04DX003 (ip), vehicle: water 101 % of control | endpoint: median survival time, dose: 10.0 mg/kg/injection, schedule: Q04DX003 (ip), vehicle: water 108 % of control | endpoint: median survival time, dose: 12.5 mg/kg/injection, schedule: Q04DX003 (ip), vehicle: water 104 % of control | endpoint: median survival time, dose: 20.0 mg/kg/injection, schedule: Q04DX003 (ip), vehicle: water 111 % of control | endpoint: median survival time, dose: 25.0 mg/kg/injection, schedule: Q04DX003 (ip), vehicle: water 102 % of control | endpoint: median survival time, dose: 50.0 mg/kg/injection, schedule: Q04DX003 (ip), vehicle: water 104 % of control | endpoint: median survival time, dose: 100.0 mg/kg/injection, schedule: Q04DX003 (ip), vehicle: water 108 % of control

O=C(OC/C=C/CCl)c1ccc([N+](=O)[O-])cc1
inactive: [7] 95 % of control | [8] 94 % of control | [1] 91 % of control and 94 % of control

CCOC(=O)Cn1c(=O)cc(C)c2ccccc21
inactive: [4] 100 % of control | [5] 101 % of control | [6] 101 % of control

O=C(CCl)N1CCc2ccccc21
inactive: endpoint: mean survival time, dose: 100.0 mg/kg/injection, schedule: Q04DX003 (ip), vehicle: Klucel (hydroxypropylcellulose) (HPC) 98 % of control | endpoint: mean survival time, dose: 200.0 mg/kg/injection, schedule: Q04DX003 (ip), vehicle: Klucel (hydroxypropylcellulose) (HPC) 103 % of control | endpoint: mean survival time, dose: 400.0 mg/kg/injection, schedule: Q04DX003 (ip), vehicle: Klucel (hydroxypropylcellulose) (HPC) 97 % of control

COc1cccc2c1C(=O)OC2=O
inactive: endpoint: mean survival time, dose: 12.5 mg/kg/injection, schedule: Q01DX005 (ip), vehicle: Klucel (hydroxypropylcellulose) (HPC) 101 % of control | endpoint: mean survival time, dose: 25.0 mg/kg/injection, schedule: Q01DX005 (ip), vehicle: Klucel (hydroxypropylcellulose) (HPC) 101 % of control | endpoint: mean survival time, dose: 50.0 mg/kg/injection, schedule: Q01DX005 (ip), vehicle: Klucel (hydroxypropylcellulose) (HPC) 95 % of control | endpoint: mean survival time, dose: 100.0 mg/kg/injection, schedule: Q01DX005 (ip), vehicle: Klucel (hydroxypropylcellulose) (HPC) 94 % of control | endpoint: mean survival time, dose: 200.0 mg/kg/injection, schedule: Q01DX005 (ip), vehicle: Klucel (hydroxypropylcellulose) (HPC) 95 % of control

COc1cc(NC(C)=O)c2ncccc2c1Br
inactive: [4] 104 % of control | [5] 97 % of control | [6] 92 % of control

O=C(O)/C(Br)=C/c1ccccc1
inactive: [8] 100 % of control | [1] 90 % of control | [4] 103 % of control | [2] 90 % of control | [5] 110 % of control | [6] 110 % of control

COC(=O)C(CSC(c1ccccc1)(c1ccccc1)c1ccccc1)NC(=O)C(CC(N)=O)NC(=O)OCc1ccccc1 (stereo not drawn) (Cbz-Asn-Cys(Trt)-OMe; configuration not given here)
inactive: endpoint: median survival time, dose: 12.5 mg/kg/injection, schedule: Q01DX009 (ip), vehicle: distilled water + Tween-80 101 % of control | endpoint: median survival time, dose: 25.0 mg/kg/injection, schedule: Q01DX009 (ip), vehicle: distilled water + Tween-80 108 % of control | endpoint: median survival time, dose: 50.0 mg/kg/injection, schedule: Q01DX009 (ip), vehicle: distilled water + Tween-80 113 % of control and 107 % of control | endpoint: median survival time, dose: 100.0 mg/kg/injection, schedule: Q01DX009 (ip), vehicle: distilled water + Tween-80 114 % of control
active: endpoint: median survival time, dose: 200.0 mg/kg/injection, schedule: Q01DX009 (ip), vehicle: distilled water + Tween-80 162 % of control

Nc1cccc(/C=C/c2nc(N)nc(N)c2-c2ccc(Cl)c(Cl)c2)c1
inactive: endpoint: mean survival time, dose: 75.0 mg/kg/injection, schedule: Q01DX001 (ip), vehicle: saline 91 % of control | endpoint: mean survival time, dose: 150.0 mg/kg/injection, schedule: Q01DX001 (ip), vehicle: saline 92 % of control | endpoint: mean survival time, dose: 300.0 mg/kg/injection, schedule: Q01DX001 (ip), vehicle: saline 91 % of control

COC1OC2C(CO)OC(n3ncc4c3ncn3cnnc43)C2O1 (centres undefined)
inactive: endpoint: mean survival time, dose: 12.5 mg/kg/injection, schedule: Q01DX005 (ip), vehicle: distilled water + Tween-80 96 % of control | endpoint: mean survival time, dose: 25.0 mg/kg/injection, schedule: Q01DX005 (ip), vehicle: distilled water + Tween-80 96 % of control | endpoint: mean survival time, dose: 50.0 mg/kg/injection, schedule: Q01DX005 (ip), vehicle: distilled water + Tween-80 92 % of control | endpoint: mean survival time, dose: 100.0 mg/kg/injection, schedule: Q01DX005 (ip), vehicle: distilled water + Tween-80 96 % of control | endpoint: mean survival time, dose: 200.0 mg/kg/injection, schedule: Q01DX005 (ip), vehicle: distilled water + Tween-80 96 % of control

CCCCS(=O)(=O)OCCCCOS(=O)(=O)CCCC
inactive: [9] 96 % of control | [10] 95 % of control | [11] 101 % of control

Reference: PubChem BioAssay AID256 (DTP/NCI, 2004)
